Results reported in patent publication US8853258B2, “C-linked hydroxamic acid derivatives useful as antibacterial agents” (Pfizer Inc., priority 2009, dated 2014).
≈ marks a conversion by molar mass, not a printed value. Like-named read-outs stand apart in the source and are kept apart here.

Columns and labels:
[1] = system: Klebsiella pneumoniae: Ciprofloxacin-resistant isolate, ESBL, clinical isolate (KP-3700); experiment: MIC determination (CLSI), KP-3700; type: cell-based
Method in brief: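 Strain KP-3700, a clinical isolate producing extended-spectrum β-lactamases and resistant to ciprofloxacin, was tested. Minimum inhibitory concentrations determined via CLSI dilution methodology (M7-A7; M100-S18).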

[2] = system: Pseudomonas aeruginosa UI-18: Wild-type (PA-7); experiment: MIC determination (CLSI), PA-7; type: cell-based; settings: for MIC: Pseudomonas aeruginosa
Method in brief: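 Wild-type P. aeruginosa UI-18 tested for minimum inhibitory concentration. Broth/agar dilution following CLSI standards (M7-A7, M100-S18).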

[3] = biological target: Pseudomonas aeruginosa LpxC enzyme (Pseudomonas aeruginosa (strain ATCC 15692 / DSM 22644 / CIP 104116 / JCM 14847 / LMG 12228 / 1C / PRS 101 / PAO1), UniProt P47205); experiment: IC50 Assay, LpxC Enzyme from P. aeruginosa (PA LpxC Enzyme IC50); type: biochemical
Method in brief: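 Product formation quantified by RapidFire HTMS after a 1 h enzyme reaction quenched with 1N HCl.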

[4] = system: Escherichia coli EC-1: VOGEL, mouse virulent; experiment: MIC determination (CLSI), EC-1; type: cell-based; settings: for MIC: Escherichia coli
Method in brief: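 E. coli Vogel, a mouse-virulent strain (EC-1), was tested. MICs were set by dilution susceptibility testing per CLSI standards M7-A7/M100-S18.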

[5] = system: Acinetobacter baumanii/haemolyticus: Multidrug-resistant clinical isolate (AB-3167); experiment: MIC determination (CLSI), AB-3167; type: cell-based; settings: for MIC: Acinetobacter baumannii
Method in brief: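 Multidrug-resistant clinical isolate AB-3167 (A. baumannii/haemolyticus) tested for minimum inhibitory concentration following CLSI dilution susceptibility standards M7-A7 and M100-S18.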

[6] = Pseudomonas aeruginosa UI-18 wild-type PA-7
[7] = P. aeruginosa LpxC enzyme, read-out: PA LpxC enzyeme IC50
[8] = Escherichia coli EC-1 VOGEL, mouse virulent
[9] = Acinetobacter baumanii/haemolyticus multidrug-resistant clinical isolate AB-3167
[10] = Table 3, read-out: PA LpxC enzyeme IC^50
[11] = Table 1, MIC, read-out: PA-7 (MIC)
[12] = Table 1, read-out: PA LpxC enzyeme IC50
[13] = Table 1, MIC, read-out: AB-3167 (MIC)
[14] = Pseudomonas aeruginosa UI-18 (PA-7)
[15] = Acinetobacter baumanii/haemolyticus AB-3167

Structure (SMILES) | KP-3700 MIC [1] | PA-7 MIC [2, 6] | IC50 [3, 7] | EC-1 MIC [4, 8] | AB-3167 MIC [5, 9] | also measured
CC(=O)c1ccc(-c2ccc(CCC(C)(C(=O)NO)S(C)(=O)=O)c(F)c2)nc1 (stereo not drawn) [Example 187] | 16 µg/mL | 4 µg/mL | 632 pM | 16 µg/mL | ≧64 mg/L | 
CC(CCc1ccc(OCc2cccnc2)cc1)(C(=O)NO)S(C)(=O)=O (stereo not drawn) [Example 303, N-hydroxy-2-methyl-2-(methylsulfonyl)-4-[4-(pyridin-3-ylmethoxy)phenyl]butanamide] | ≧64 mg/L |  |  |  |  | MIC ([2]; Table 3, read-out: PA-7 MIC): 16 µg/mL (≈ 42.3 µM); IC50 [3, 10]: 4580 pM; MIC ([4]; read-out: EC-1 MIC): ≥ 64 µg/mL; MIC ([5]; Table 3, read-out: AB-3167 MIC): ≥ 64 µg/mL
C[C@@](CCc1ccc(-c2ccc(O)cc2)cc1)(C(=O)NO)S(C)(=O)=O [Example 23, (2R)—N-hydroxy-4-(4′-hydroxybiphenyl-4-yl)-2-methyl-2-(methylsulfonyl)butanamide] | 8 µg/mL |  |  |  |  | MIC [2, 11]: 2 µg/mL (≈ 5.5 µM); IC50 [3, 12]: 180 pM; MIC ([4]; read-out: EC-1: (MIC)): 4 µg/mL (≈ 11 µM); MIC [5, 13]: ≥ 64 µg/mL
C[C@@](CCc1ccc(-c2ccc(OCCCN3CCCCC3)cc2)cc1)(C(=O)NO)S(C)(=O)=O [Example 220] | 32 µg/mL |  | 467 pM |  |  | PA-7 MIC [2, 14]: 16 µg/mL; EC-1 MIC ([4]; Escherichia coli EC-1): 8 µg/mL; AB-3167 MIC [5, 15]: ≧64 mg/L
CC(CCc1ccc(OCc2ccccc2C#N)cc1)(C(=O)NO)S(C)(=O)=O (stereo not drawn) [Example 285, 4-{4-[(2-cyanobenzyl)oxy]phenyl}-N-hydroxy-2-methyl-2-(methylsulfonyl)butanamide] | ≧64 mg/L |  |  |  |  | MIC ([2]; Table 3, read-out: PA-7 MIC): 32 µg/mL (≈ 79.5 µM); IC50 [3, 10]: 10000 pM; MIC ([4]; read-out: EC-1 MIC): 32 µg/mL (≈ 79.5 µM); MIC ([5]; Table 3, read-out: AB-3167 MIC): ≥ 64 µg/mL
CC(O)C(=O)c1ccc(-c2ccc(CCC(C)(C(=O)NO)S(C)(=O)=O)cc2)cc1 (stereo not drawn) [Example 194] | 4 µg/mL | 1 µg/mL | 195 pM | 1 µg/mL | ≧64 mg/L | 
CC(CCc1ccc(-c2ccc(O)cc2)cc1F)(C(=O)NO)S(C)(=O)=O (stereo not drawn) [Example 178] | 4 µg/mL | 1 µg/mL | 59.2 pM | 1 µg/mL | 8 µg/mL | 
CC(CCc1ccc(-c2ccc3nonc3c2)cc1)(C(=O)NO)S(C)(=O)=O (stereo not drawn) [Example 174] | 8 µg/mL | 2 µg/mL | 540 pM | 4 µg/mL | ≧64 mg/L | 
C[C@](CCc1ccc(-c2ccc3c(c2)OCCO3)cc1)(C(=O)NO)S(C)(=O)=O [Example 175] | ≧64 mg/L | ≧64 mg/L | 14600 pM | 32 µg/mL | ≧64 mg/L | 
COc1cc(COc2ccc(CCC(C)(C(=O)NO)S(C)(=O)=O)cc2)cc(OC)c1 (stereo not drawn) [Example 244, 4-{4-[(3,5-dimethoxybenzyl)oxy]phenyl}-N-hydroxy-2-methyl-2-(methylsulfonyl)butanamide] | 16 µg/mL |  |  |  |  | MIC ([2]; Table 3, read-out: PA-7 MIC): ≥ 64 µg/mL; IC50 [3, 10]: 5000 pM; MIC ([4]; read-out: EC-1 MIC): 4 µg/mL (≈ 9.14 µM); MIC ([5]; Table 3, read-out: AB-3167 MIC): ≥ 64 µg/mL
CC(CCc1ccc(C2=CCCC2)cc1)(C(=O)NO)S(C)(=O)=O (stereo not drawn) [Example 227] | ≧64 mg/L |  | 11400 pM |  |  | PA-7 MIC [2, 14]: 16 µg/mL; EC-1 MIC ([4]; Escherichia coli EC-1): ≧64 mg/L; AB-3167 MIC [5, 15]: ≧64 mg/L
Cc1cc(F)ccc1-c1ccc(CCC(C)(C(=O)NO)S(C)(=O)=O)cc1 (stereo not drawn) [Example 98] | 16 µg/mL | 2 µg/mL | 1230 pM | 4 µg/mL | 32 µg/mL | 
CC(CCc1ccc(-c2ccsc2)cc1)(C(=O)NO)S(C)(=O)=O (stereo not drawn) [Example 77] | 16 µg/mL | 2 µg/mL | 991 pM | 8 µg/mL | ≧64 mg/L | 
CC(CCc1ccc(-c2cccc(Cl)c2Cl)cc1)(C(=O)NO)S(C)(=O)=O (stereo not drawn) [Example 59] | 2 µg/mL | 2 µg/mL | 213 pM | 0.5 µg/mL | 2 µg/mL | 
CC(CCc1ccc(-c2ccc(Cl)cc2)cc1)(C(=O)NO)S(C)(=O)=O (stereo not drawn) [Example 44] | 1 µg/mL | 0.5 µg/mL | 66.9 pM | 0.5 µg/mL | 16 µg/mL | 
Cc1cc(CCC(C)(C(=O)NO)S(C)(=O)=O)ccc1-c1ccc(F)cc1 (stereo not drawn) [Example 160] | 8 µg/mL | 4 µg/mL | 2540 pM | 2 µg/mL | 16 µg/mL | 
CC(=O)c1cc(-c2ccc(CCC(C)(C(=O)NO)S(C)(=O)=O)cc2)ccc1O (stereo not drawn) [Example 180] | 16 µg/mL | 8 µg/mL | 826 pM | 4 µg/mL | 16 µg/mL | 
Cc1cc(C#N)ccc1-c1ccc(CCC(C)(C(=O)NO)S(C)(=O)=O)cc1 (stereo not drawn) [Example 91] | 8 µg/mL | 2 µg/mL | 266 pM | 2 µg/mL | 16 µg/mL | 
CC(CCc1ccc(-c2ccc3c(c2)OCO3)cc1)(C(=O)NO)S(C)(=O)=O (stereo not drawn) [Example 176] | 2 µg/mL | 0.5 µg/mL | 30.3 pM | 0.5 µg/mL | 16 µg/mL | 
CC(CCc1ccc(-c2ccc(C(=O)CO)cc2)cc1F)(C(=O)NO)S(C)(=O)=O (stereo not drawn) [Example 183] | 4 µg/mL | 2 µg/mL | 387 pM | 2 µg/mL | ≧64 mg/L | 
C[C@@](CCc1ccc(-c2ccc(N)nc2)cc1)(C(=O)NO)S(C)(=O)=O [Example 204] | ≧64 mg/L |  | 18200 pM |  |  | PA-7 MIC [2, 14]: 8 µg/mL; EC-1 MIC ([4]; Escherichia coli EC-1): ≧64 mg/L; AB-3167 MIC [5, 15]: ≧64 mg/L
Cc1cccc(Cc2noc(COc3ccc(CCC(C)(C(=O)NO)S(C)(=O)=O)cc3)n2)c1 (stereo not drawn) [Example 289, N-hydroxy-2-methyl-4-(4-{[3-(3-methylbenzyl)-1,2,4-oxadiazol-5-yl]methoxy}phenyl)-2-(methylsulfonyl)butanamide] | ≧64 mg/L |  |  |  |  | MIC ([2]; Table 3, read-out: PA-7 MIC): ≥ 64 µg/mL; IC50 [3, 10]: 10400 pM; MIC ([4]; read-out: EC-1 MIC): 32 µg/mL (≈ 67.6 µM); MIC ([5]; Table 3, read-out: AB-3167 MIC): ≥ 64 µg/mL
CC(CCc1ccc(OCc2nc(-c3cccc(Cl)c3)no2)cc1)(C(=O)NO)S(C)(=O)=O (stereo not drawn) [Example 298, 4-(4-{[3-(3-chlorophenyl)-1,2,4-oxadiazol-5-yl]methoxy}phenyl)-N-hydroxy-2-methyl-2-(methylsulfonyl)butanamide] | 32 µg/mL |  |  |  |  | MIC ([2]; Table 3, read-out: PA-7 MIC): 32 µg/mL (≈ 66.7 µM); IC50 [3, 10]: 1660 pM; MIC ([4]; read-out: EC-1 MIC): 16 µg/mL (≈ 33.3 µM); MIC ([5]; Table 3, read-out: AB-3167 MIC): 16 µg/mL (≈ 33.3 µM)
CC(CCc1ccc(COc2cccc(F)c2)cc1)(C(=O)NO)S(C)(=O)=O (stereo not drawn) [Example 229] | 32 µg/mL |  | 3240 pM |  |  | PA-7 MIC [2, 14]: 8 µg/mL; EC-1 MIC ([4]; Escherichia coli EC-1): 8 µg/mL; AB-3167 MIC [5, 15]: 16 µg/mL
Cc1oc(-c2cccc(F)c2)nc1COc1ccc(CCC(C)(C(=O)NO)S(C)(=O)=O)cc1 (stereo not drawn) [Example 302, 4-(4-{[2-(3-fluorophenyl)-5-methyl-1,3-oxazol-4-yl]methoxy}phenyl)-N-hydroxy-2-methyl-2-(methylsulfonyl)butanamide] | ≧64 mg/L |  |  |  |  | MIC ([2]; Table 3, read-out: PA-7 MIC): ≥ 64 µg/mL; IC50 [3, 10]: 12500 pM; MIC ([4]; read-out: EC-1 MIC): 16 µg/mL (≈ 33.6 µM); MIC ([5]; Table 3, read-out: AB-3167 MIC): ≥ 64 µg/mL
CC(CCc1ccc(-c2ccc3ncccc3c2)c(F)c1)(C(=O)NO)S(C)(=O)=O (stereo not drawn) [Example 195] | 4 µg/mL | 2 µg/mL | 733 pM | 1 µg/mL | 32 µg/mL | 
CC(=O)Nc1ccc(-c2ccc(CCC(C)(C(=O)NO)S(C)(=O)=O)cc2F)cc1 (stereo not drawn) [Example 207] | ≧64 mg/L |  | 7090 pM |  |  | PA-7 MIC [2, 14]: 16 µg/mL; EC-1 MIC ([4]; Escherichia coli EC-1): 32 µg/mL; AB-3167 MIC [5, 15]: ≧64 mg/L
CC(=O)NC[C@@H]1CN(c2ccc(-c3ccc(CC[C@](C)(C(=O)NO)S(C)(=O)=O)cc3)c(F)c2)C(=O)O1 [Example 14, (2R)-4-{4′-[(5R)-5-(Acetamidomethyl)-2-oxo-1,3-oxazolidin-3-yl]-2′-fluorobiphenyl-4-yl}-N-hydroxy-2-methyl-2-(methylsulfonyl)butanamide] | ≧64 mg/L |  |  |  |  | MIC [2, 11]: 32 µg/mL (≈ 61.4 µM); IC50 [3, 12]: 1480 pM; MIC ([4]; read-out: EC-1: (MIC)): 16 µg/mL (≈ 30.7 µM); MIC [5, 13]: ≥ 64 µg/mL
CC(CCc1ccc(-c2cccc(F)c2F)cc1)(C(=O)NO)S(C)(=O)=O (stereo not drawn) [Example 62] | 16 µg/mL | 0.25 µg/mL | 185 pM | 0.5 µg/mL | 16 µg/mL | 
CC(CCc1ccc(-c2ccc(O)cc2)c(F)c1)(C(=O)NO)S(C)(=O)=O (stereo not drawn) [Example 177] | 8 µg/mL | 2 µg/mL | 306 pM | 1 µg/mL | 32 µg/mL | 
